According to patent US20060030586A1, “Method and health food for preventing and/or alleviating psychiatric disorder, and/or for effectuating sedation” (Education Center of Traditional Chinese Medicine Co., priority 2004, published 2006):

Key:
mice [1] = assay: Thiopental sleep-enhancing test; assay type: in vivo; conditions: 15 minutes before thiopental 60 mg/kg i.p.
Procedure: (§1) In the following Examples, all extracts and drugs used were dissolved in physiological saline before use for i.p. administration and the dose was 0.1 ml of physiological saline per 10 g of mouse body weight in either case. All extracts and drugs were suspended in physiological saline containing 1% carboxymethylcellulose before use for oral administration and the dose was 0.1 ml of 1% carboxymethylcellulose-containing physiological saline suspension per 10 g of mouse body weight in either case. Male ICR mice (Japan SLC) having a body weight of 25 to 30 g were used in the tests below unless otherwise stated, and were fed in advance at a room temperature of 23±1° C. and a relative humidity of 55±5% in the environment of a 12-hour-light and 12-hour-dark cycle at 7 and 19 for 3 to 5 days. The mice were allowed to have water and feed freely.
Actions on thiopental sleep by various compounds were evaluated. Thiopental dissolved in physiological saline was administered intraperitoneally into mice at a dose of 60 mg/kg. 50 mg/kg of neferine hydrochloride (treatment group 2-1, n=9), 50 mg/kg of isoliensinine hydrochloride (treatment group 2-2, n=9), 100 mg/kg of lien tzehsin 2 extract hydrochloride (treatment group 2-3, n=9), only physiological saline (negativity control group, n=6), or 1 mg/kg of diazepam (positive control group, n=9) was administered intraperitoneally into the mice 15 minutes before the thiopental administration. The time when the righting reflex of the mice disappeared after thiopental administration was designated as sleep-induction time, while total sleep time was calculated from the induction time and the time when the righting reflex was restored.

mice [2] = conditions: Ito et al.; cited from earlier work
mice [3] = assay: Elevated plus-maze test; assay type: in vivo; conditions: 100 mg/kg i.p., hydrochloride, 30 minutes after administration, 5 minutes
Procedure: In the following Examples, all extracts and drugs used were dissolved in physiological saline before use for i.p. administration and the dose was 0.1 ml of physiological saline per 10 g of mouse body weight in either case. All extracts and drugs were suspended in physiological saline containing 1% carboxymethylcellulose before use for oral administration and the dose was 0.1 ml of 1% carboxymethylcellulose-containing physiological saline suspension per 10 g of mouse body weight in either case. […]
An elevated plus-maze (Neuroscience Inc.) consisting of 2 arms without high walls and 2 arms enclosed by high walls, which were crossing perpendicular to each other, was used for evaluation. A mouse was placed on the platform at the center in a position facing toward an arm enclosed by high walls, and the number of times the mouse entered into both arms and the period of the mouse staying in the arms without walls were determined during a period of 5 minutes. The results were evaluated by the ratios of the number of the mouse entering into the arms with walls with respect to the total number of entering into both arms (%) and by the period of the mouse staying in the arms without walls (%). […]

mice [4] = assay: Locomotor activity (ultromotivity) measurement, evaluation of sedative action; assay type: in vivo; conditions: for Significant difference test of ultromotivity: Tukey's method; for Significant difference test of ultromotivity / Ultromotivity (count) 60 minutes: 60 minutes
Procedure: as §1
Twenty five mice were grouped into five groups each having five mice, to which 5 mg/kg of N-methylcoclaurine hydrochloride (treatment group 1-1: i.p. administration), 50 mg/kg of neferine hydrochloride (treatment group 1-2: oral administration, and treatment group 1-3: i.p. administration), 50 mg/kg of liensinine hydrochloride (treatment group 1-4: oral administration), or physiological saline (negativity control group 1-1: i.p. administration) was administered. The ultromotivity of the mice was analyzed by using a locomotor activity monitoring system (NS-AS01, Neuroscience Inc.). The ultromotivity measurements were performed at an interval of 5 minutes for 60 minutes, and the ultromotivity was judged from the count at each measuring time.
Similar tests were conducted by i.p. administration of 25 mg/kg of N-norarmepavine (treatment group 1-5, n=6), 25 mg/kg of O,O-dimethylcoclaurine (treatment group 1-6, n=5), 10 mg and 25 mg/kg of armepavine (respectively, treatment group 1-7, n=6, and treatment group 1-8, n=6), 10 mg and 25 mg/kg of O-methylarmepavine (respectively, treatment group 1-9, n=6, and treatment group 1-10, n=6), and physiological saline (negativity control group 1-2, n=5). The ultromotivity measurements were performed at an interval of five minutes for 60 minutes, and the ultromotivity was subjected to a significant difference test (Tukey's method) by using the counts at respective measuring times.
(§2) Tests were performed by using mice administered intraperitoneally with 25 mg/kg of neferine hydrochloride (treatment group 7-1, n=6), 25 mg/kg of liensinine hydrochloride (treatment group 7-2, n=6), and physiological saline (negativity control group, n=6) as well as 5 mg/kg of diazepam (positive control group, n=6) and a rotarod equipment (Ugo Basile, Italy) and a locomotor activity monitoring system (NS-ASO1, Neuroscience Inc.). The rotarod test was performed by placing a mouse on a rod having a diameter of 4 cm rotating at a speed of 8 rpm 15 minutes after drug administration and observing whether the mouse can stay on the rod without falling for three minutes. The individuals that had fallen from the rotating rod in the period of 3 minutes were judged that they are with motor coordination disorder. […] In addition, the ultromotivity measurements were performed at an interval of five minutes for 60 minutes, and the ultromotivity results were subjected to a significant difference test (Tukey's method) by using the counts at respective measuring times.

[5] = Seibu et al., no specific data; cited from earlier work
mice [6] = assay: Suppression of methamphetamine-enhanced ultromotivity; assay type: in vivo; conditions: for Ultromotivity (count): hydrochloride, methamphetamine 1 mg/kg 15 minutes later, 60 minutes
Procedure: as §1
The effects of neferine on suppression of the enhancement of ultromotivity by methamphetamine were evaluated.
Fifteen mice were grouped into three groups of five mice, to which 50 mg/kg of neferine hydrochloride (treatment group 3-1), 100 mg/kg of the same (treatment group 3-2), and only physiological saline (negativity control group) were administered respectively intraperitoneally. Methamphetamine (1 mg/kg) was administered 15 minutes after the administration. After administration of methamphetamine, each of the mice was placed in a transparent polycarbonate cage (22.5 cm×33.8 cm×14.0 cm), where the ultromotivity of the mouse was analyzed for 60 minutes by using a locomotor activity analyzer (NS-AS01, Neuroscience Inc.).

mice [7] = assay: Rotarod test (muscle relaxation, motor coordination); assay type: in vivo; conditions: n=6, 8 rpm, 3 minutes, 15 minutes after administration
Procedure: as §1, §2

mice [8] = assay: Forced swimming test (Porsolt); assay type: in vivo; conditions: 100 mg/kg i.p., hydrochloride, 6-minute period
Procedure: as §1
Forced swimming tests were conducted according to the method of Porsolt et al. A mouse was placed in a cylindrical glass water tank of 10 cm in diameter and 25 cm in height (water temperature: 23° C.) filled with water to a depth of 10 cm and forced to swim therein. […] Each mouse was forced to swim 15 and 30 minutes after administration, and the immobile times during the 6-minute periods immediately after forced swimming were determined. […]

mice [9] = assay: Glass ball-covering behavior test; assay type: in vivo; conditions: hydrochloride, 20 balls
Procedure: as §1
In evaluating glass ball-covering behavior, wood chip for breeding (beta chip) (Oriental Yeast Co., Ltd.) was placed in the transparent cage described in Example 3 to a depth of 5 cm, on which 20 glass balls (diameter: 1.5 cm) were placed evenly.
Twenty-one mice were grouped into three groups of seven mice, to which 25 mg/kg of neferine hydrochloride (treatment group 6-1), 50 mg/kg of the same (treatment group 6-2), and physiological saline (negativity control group) were administered intraperitoneally, respectively. A mouse was placed in the case 15 minutes after administration, and the number of the glass balls not covered with the wood chip was counted by visual observation at an interval of 10 minutes. The number of balls having ⅔ of the surface thereof being embedded in the wood chip was counted as the criteria for judgment.

COc1ccc(C[C@@H]2c3cc(Oc4cc(C[C@@H]5c6cc(O)c(OC)cc6CCN5C)ccc4O)c(OC)cc3CCN2C)cc1 [isoliensinine]
Total sleep time (mice [1]; 50 mg/kg i.p., hydrochloride): 120 min

COc1ccc(C[C@@H]2c3cc(Oc4cc(C[C@@H]5c6cc(OC)c(OC)cc6CCN5C)ccc4O)c(OC)cc3CCN2C)cc1 [neferine]
Locomotor activity-inhibiting action (in words) (mice [2]): exhibited a locomotor activity-inhibiting action
Staying period (%) (mice [3]; arms without walls): 33%
Invasion times (%) (mice [3]; ratio to total entries): 70%
Significant difference test of ultromotivity (mice [4]; 25 mg/kg i.p., hydrochloride): P < 0.01
Ultromotivity (count) 30 minutes (mice [4]; 50 mg/kg i.p., hydrochloride): 500 count
Ultromotivity (count) 60 minutes (mice [4]; 50 mg/kg i.p., hydrochloride): 760 count
Ultromotivity (count) 30 minutes (mice [4]; 50 mg/kg oral, hydrochloride): 500 count
Ultromotivity (count) 60 minutes (mice [4]; 50 mg/kg oral, hydrochloride): 750 count
Antihypertensive action (in words) [5]: exhibited an antihypertensive action
Ultromotivity (count) (mice [6]; 50 mg/kg i.p.): 2600 count
Ultromotivity (count) (mice [6]; 100 mg/kg i.p.): 1800 count
Action on ultromotivity enhancement by methamphetamine (in words) (mice [6]; 50 and 100 mg/kg i.p.): obvious action suppressing the ultromotivity enhancement by methamphetamine
Number of individuals fallen (mice [7]; 25 mg/kg i.p., hydrochloride): 0
Immobile time (sec) After 15 minutes (mice [8]; 15 minutes after administration): 165 s
Immobile time (sec) After 30 minutes (mice [8]; 30 minutes after administration): 170 s
Total sleep time (mice [1]; 50 mg/kg i.p., hydrochloride): 100 min
Number of glass balls not covered with wood chip After 10 minutes (mice [9]; 25 mg/kg i.p.): 4
Number of glass balls not covered with wood chip After 20 minutes (mice [9]; 25 mg/kg i.p.): 7
Number of glass balls not covered with wood chip After 30 minutes (mice [9]; 25 mg/kg i.p.): 10
Number of glass balls not covered with wood chip After 10 minutes (mice [9]; 50 mg/kg i.p.): 3
Number of glass balls not covered with wood chip After 20 minutes (mice [9]; 50 mg/kg i.p.): 6
Number of glass balls not covered with wood chip After 30 minutes (mice [9]; 50 mg/kg i.p.): 9

CN1C(=O)CN=C(c2ccccc2)c2cc(Cl)ccc21 [diazepam, reference compound]
Significant difference test of ultromotivity (mice [4]; 5 mg/kg i.p.): P < 0.005
Number of individuals fallen (mice [7]; 5 mg/kg i.p.): 5
Total sleep time (mice [1]; 1 mg/kg i.p.): 130 min

COc1cc2c(cc1OC)[C@@H](Cc1ccc(O)c(Oc3cc4c(cc3OC)CCN(C)[C@@H]4Cc3ccc(O)cc3)c1)N(C)CC2 [liensinine]
Significant difference test of ultromotivity (mice [4]; 25 mg/kg i.p., hydrochloride): In declining
Ultromotivity (count) 30 minutes (mice [4]; 50 mg/kg oral, hydrochloride): 600 count
Ultromotivity (count) 60 minutes (mice [4]; 50 mg/kg oral, hydrochloride): 800 count
Number of individuals fallen (mice [7]; 25 mg/kg i.p., hydrochloride): 0

COc1cc2c(cc1O)[C@@H](Cc1ccc(O)cc1)N(C)CC2 [N-methylcoclaurine]
Sedative activity compared with neferine and liensinine (in words) (mice [4]; 5 mg/kg i.p. versus 50 mg/kg): extremely higher activity
Ultromotivity (count) 30 minutes (mice [4]; 5 mg/kg i.p., hydrochloride): 250 count
Ultromotivity (count) 60 minutes (mice [4]; 5 mg/kg i.p., hydrochloride): 250 count
